Assay results as given in paper PMC5030359, “Cathelicidin Antimicrobial Peptides with Reduced Activation of Toll-Like Receptor Signaling Have Potent Bactericidal Activity against Colistin-Resistant Bacteria” (mBio, 2016).
Converted amounts (≈) assume the structure as drawn. “And” between values parts separate entries of the source, which are not always exact repeats. Identical values can stand only once. Like-named read-outs stand apart in the source and are kept apart here. Bridge positions count the residues as written; N and C are the ends. Square brackets hold non-standard residues; d marks the D form. Peptide text beside a SMILES is read from it. * marks the point of attachment. X1 = CC[C@H](C)CCCCC(=O)*; Dab = NCC[C@H](N)C(=O)O

What was measured:
Klebsiella pneumoniae = details: for # strains inhibited at 16 µg/ml peptide K. p.: strains with MIC of 16 µg/ml or less / strains tested
Experimental: (§1) The bacterial species tested are Klebsiella pneumoniae (K. p.), Serratia marcescens (S. m.), Enterobacter cloacae (E. cl.), Escherichia coli (E. c.), and Pseudomonas aeruginosa (P. a.). MICs were determined by the microdilution assay. […] The results are the median values of at least three independent assays.
(§2) Antimicrobial activity was determined using the broth microdilution method based on the guidelines of the Clinical and Laboratory Standards Institute (CLSI) ([39]), using cation-adjusted Mueller-Hinton broth (CAMHB) as the testing medium. Reference Gram-positive and Gram-negative bacteria were tested, including both enteric and Pseudomonas aeruginosa strains. Each MIC was determined in at least three independent assays.

Serratia marcescens = details: for # strains inhibited at 16 µg/ml peptide S. m.: strains with MIC of 16 µg/ml or less / strains tested
Experimental: as §1, §2

Enterobacter cloacae = details: strains with MIC of 16 µg/ml or less / strains tested
Experimental: as §1, §2

K. pneumoniae = assay: Bacterial killing, colony formation (CFU); type: cell-based, Klebsiella pneumoniae; details: 2 µM; Fig. 5C (K. pneumoniae 59) and data not shown
E. cloacae 4080 = assay: Bacterial killing, colony formation (CFU); type: cell-based, Enterobacter cloacae; details: 25 µg/ml kanamycin sulfate, E. cloacae 4080
Experimental: The number of CFU of E. cloacae 4080 were quantified as a function of time of incubation with a 2 µM concentration of the individual peptides. In the reactions with kanamycin (Kan), 25 µg/ml of kanamycin sulfate was used. […] The initial inoculum was 10^6 CFU in LB.

Experimental for 19 Gram-negative strains: (A) Sequences of the cathelicidins, the numbers of bacterial strains killed, and hRBC lysis by the cathelicidins. […] The bacterial species tested are Klebsiella pneumoniae (K. p.), Serratia marcescens (S. m.), Enterobacter cloacae (E. cl.), Escherichia coli (E. c.), and Pseudomonas aeruginosa (P. a.). MICs were determined by the microdilution assay. […] The results are the median values of at least three independent assays.
We tested a panel of cathelicidins for inhibiting growth of 19 Gram-negative strains from the family Enterobacteriaceae and the nonfermentative bacteria. The species tested were Enterobacter cloacae ([2]), Escherichia coli ([5]), Klebsiella pneumoniae ([4]), Pseudomonas aeruginosa ([4]), and Serratia marcescens ([4]). All of the strains selected have been characterized for their antibiotic resistance profiles.
as §2
Experimental for E. faecalis: as §2
Experimental for Escherichia coli: as §1, §2
Experimental for Pseudomonas aeruginosa: as §1, §2
Experimental for S. aureus: as §2

SMILES | # strains inhibited at 16 µg/ml peptide P. a. (Pseudomonas aeruginosa) | # strains inhibited at 16 µg/ml peptide K. p. (Klebsiella pneumoniae) | # strains inhibited at 16 µg/ml peptide S. m. (Serratia marcescens) | # strains inhibited at 16 µg/ml peptide E. c. (Escherichia coli) | No. of strains inhibited at 16 µg/ml/total no. of strains (19 Gram-negative strains) | # strains inhibited at 16 µg/ml peptide E. cl. (Enterobacter cloacae) | MIC S. aureus 25923 (S. aureus) | MIC S. aureus 29213 (S. aureus) | MIC E. faecalis 29212 (E. faecalis) | MIC E. faecalis 51299 (E. faecalis) | MIC K. pneumoniae 59 (Klebsiella pneumoniae; carbapenem-resistant, colistin-resistant clinical isolate (ST258)) | MIC (µM) K. pneumoniae 88 (Klebsiella pneumoniae; carbapenem-resistant, colistin-resistant clinical isolate (ST674), microbroth MIC (SD)) | fold reduction in CFU, colistin-resistant K. pneumoniae (K. pneumoniae) | reduction of CFU over time (E. cloacae 4080) | concentration usually required to inhibit growth of S. marcescens strains (Serratia marcescens; S. marcescens strains) | No. of strains inhibited at 16 µg/ml/total no. of strains (19 Gram-negative strains; 19 Gram-negative strains, MIC of 16 µg/ml or less)
CC[C@H](C)[C@H](NC(=O)[C@H](CCCCN)NC(=O)[C@H](CCC(=O)O)NC(=O)[C@H](CCCCN)NC(=O)[C@H](CO)NC(=O)[C@H](CCCCN)NC(=O)[C@H](CCCNC(=N)N)NC(=O)[C@H](Cc1ccccc1)NC(=O)[C@H](Cc1ccccc1)NC(=O)[C@H](CC(=O)O)NC(=O)CNC(=O)[C@H](CC(C)C)NC(=O)[C@@H](N)CC(C)C)C(=O)NCC(=O)N[C@@H](CCCCN)C(=O)N[C@@H](CCC(=O)O)C(=O)N[C@@H](Cc1ccccc1)C(=O)N[C@@H](CCCCN)C(=O)N[C@@H](CCCNC(=N)N)C(=O)N[C@H](C(=O)N[C@H](C(=O)N[C@@H](CCC(N)=O)C(=O)N[C@@H](CCCNC(=N)N)C(=O)N[C@H](C(=O)N[C@@H](CCCCN)C(=O)N[C@@H](CC(=O)O)C(=O)N[C@@H](Cc1ccccc1)C(=O)N[C@@H](CC(C)C)C(=O)N[C@@H](CCCNC(=N)N)C(=O)O)[C@@H](C)CC)C(C)C)[C@@H](C)CC [LL-29] (H-LLGDFFRKSKEKIGKEFKRIVQRIKDFLR-OH; N-terminus and C-terminus assumed) | 0/4 | 0/4 | 0/3 | 2/6 | 4/19 | 1/2 |  |  |  |  |  |  |  |  |  | 
CC[C@H](C)[C@H](NC(=O)[C@@H](NC(=O)[C@@H]1CCCN1C(=O)[C@H](CO)NC(=O)[C@H](CC(C)C)NC(=O)[C@H](CCCCN)NC(=O)[C@H](CCCCN)NC(=O)[C@H](Cc1ccccc1)NC(=O)[C@H](CC(C)C)NC(=O)[C@H](CCCCN)NC(=O)[C@H](CCCCN)NC(=O)[C@H](Cc1ccccc1)NC(=O)[C@H](CCCCN)NC(=O)[C@H](CCCCN)NC(=O)[C@H](CCCNC(=N)N)NC(=O)[C@H](CC(C)C)NC(=O)[C@H](CCCNC(=N)N)NC(=O)[C@H](CCCCN)NC(=O)[C@H](Cc1ccccc1)NC(=O)[C@H](CCCNC(=N)N)NC(=O)CN)C(C)C)C(=O)N1CCC[C@H]1C(=O)N[C@@H](CC(C)C)C(=O)N[C@@H](CC(C)C)C(=O)N[C@@H](Cc1c[nH]cn1)C(=O)N[C@@H](CC(C)C)C(=O)NCC(=O)O [BMAP-27A] (H-GRFKRLRKKFKKLFKKLSPVIPLLHLG-OH; N-terminus and C-terminus assumed) | 4/4 | 4/4 | 3/3 | 6/6 | 19/19 | 2/2 | 16 µg/mL (≈ 4.92 µM) | 16 µg/mL (≈ 4.92 µM) | >32 µg/mL | >32 µg/mL |  |  |  |  |  | 
CC[C@H](C)[C@H](NC(=O)[C@@H](NC(=O)[C@@H]1CCCN1C(=O)[C@H](CO)NC(=O)[C@H](CC(C)C)NC(=O)[C@H](CCCCN)NC(=O)[C@H](CCCCN)NC(=O)[C@H](C)NC(=O)[C@H](CC(C)C)NC(=O)[C@H](CCCCN)NC(=O)[C@H](CCCCN)NC(=O)[C@H](CC(C)C)NC(=O)[C@H](CCCCN)NC(=O)[C@H](CCCCN)NC(=O)[C@H](CCCNC(=N)N)NC(=O)[C@H](CC(C)C)NC(=O)[C@H](CCCNC(=N)N)NC(=O)[C@H](CCCCN)NC(=O)[C@H](C)NC(=O)[C@H](CCCNC(=N)N)NC(=O)CN)C(C)C)C(=O)N1CCC[C@H]1C(=O)N[C@@H](CC(C)C)C(=O)N[C@@H](CC(C)C)C(=O)N[C@@H](Cc1c[nH]cn1)C(=O)N[C@@H](CC(C)C)C(=O)NCC(=O)O [BMAP-27C] (H-GRAKRLRKKLKKLAKKLSPVIPLLHLG-OH) | 4/4 | 4/4 | 2/3 | 6/6 | 17/19 | 2/2 | >32 µg/mL | 32 µg/mL (≈ 10.4 µM) | >32 µg/mL | >32 µg/mL |  |  |  |  |  | 
CC[C@H](C)CCCCC(=O)N[C@@H](CCN)C(=O)N[C@H](C(=O)N[C@@H](CCN)C(=O)N[C@H]1CCNC(=O)[C@H]([C@@H](C)O)NC(=O)[C@H](CCN)NC(=O)[C@H](CCN)NC(=O)[C@H](CC(C)C)NC(=O)[C@@H](CC(C)C)NC(=O)[C@H](CCN)NC1=O)[C@@H](C)O [Colistin, colistin] (X1-[Dab]T[Dab][Dab][Dab][dL]L[Dab][Dab]T; lactam 4-C (inferred); N-terminus assumed) |  |  |  |  |  |  |  |  |  |  | 6.4 µM (≈ 7.48 µg/mL) | 6.4 µM (≈ 7.48 µg/mL) | 1.4 fold |  |  | 
CC[C@H](C)[C@H](NC(=O)[C@H](CCCCN)NC(=O)[C@H](CCC(=O)O)NC(=O)[C@H](CCCCN)NC(=O)[C@H](CO)NC(=O)[C@H](CCCCN)NC(=O)[C@H](CCCNC(=N)N)NC(=O)[C@H](Cc1ccccc1)NC(=O)[C@H](Cc1ccccc1)NC(=O)[C@H](C)NC(=O)CNC(=O)[C@H](CC(C)C)NC(=O)[C@@H](N)CC(C)C)C(=O)NCC(=O)N[C@@H](CCCCN)C(=O)N[C@@H](C)C(=O)N[C@@H](Cc1ccccc1)C(=O)N[C@@H](CCCCN)C(=O)N[C@@H](CCCNC(=N)N)C(=O)N[C@H](C(=O)N[C@H](C(=O)N[C@@H](CCC(N)=O)C(=O)N[C@@H](CCCNC(=N)N)C(=O)N[C@H](C(=O)N[C@@H](CCCCN)C(=O)N[C@@H](CC(=O)O)C(=O)N[C@@H](Cc1ccccc1)C(=O)N[C@@H](CC(C)C)C(=O)N[C@@H](CCCNC(=N)N)C(=O)O)[C@@H](C)CC)C(C)C)[C@@H](C)CC [LL-29V] (H-LLGAFFRKSKEKIGKAFKRIVQRIKDFLR-OH) | 0/4 | 0/4 | 0/3 | 3/6 | 11/19 | 1/2 |  |  |  |  |  |  |  |  |  | 
NC[C@H]1O[C@H](O[C@H]2[C@H](O)[C@@H](O[C@H]3O[C@H](CO)[C@@H](O)[C@H](N)[C@H]3O)[C@H](N)C[C@@H]2N)[C@H](O)[C@@H](O)[C@@H]1O [kanamycin] |  |  |  |  |  |  |  |  |  |  |  |  |  | only after a 2-h incubation |  | 
CC[C@H](C)[C@H](NC(=O)[C@@H](NC(=O)[C@@H]1CCCN1C(=O)[C@H](CO)NC(=O)[C@H](CC(C)C)NC(=O)[C@H](CCCCN)NC(=O)[C@H](CCCCN)NC(=O)[C@H](Cc1ccccc1)NC(=O)[C@H](CC(C)C)NC(=O)[C@H](CCCCN)NC(=O)[C@H](CCCCN)NC(=O)[C@H](Cc1ccccc1)NC(=O)[C@H](CCCCN)NC(=O)[C@H](CCCCN)NC(=O)[C@H](CCCNC(=N)N)NC(=O)[C@H](Cc1ccccc1)NC(=O)[C@H](CCCNC(=N)N)NC(=O)[C@H](CCCCN)NC(=O)[C@H](Cc1ccccc1)NC(=O)[C@H](CCCNC(=N)N)NC(=O)CN)C(C)C)C(=O)N1CCC[C@H]1C(=O)N[C@@H](CC(C)C)C(=O)N[C@@H](CC(C)C)C(=O)N[C@@H](Cc1c[nH]cn1)C(=O)N[C@@H](CC(C)C)C(=O)NCC(=O)O [BMAP-27] (H-GRFKRFRKKFKKLFKKLSPVIPLLHLG-OH; N-terminus and C-terminus assumed) | 4/4 | 4/4 | 3/3 | 6/6 | 19 and 19/19 | 2/2 | 16 µg/mL (≈ 4.87 µM) | 16 µg/mL (≈ 4.87 µM) | >32 µg/mL | >32 µg/mL |  |  |  |  | 8 µg/mL | ≥ 16
CC[C@H](C)[C@H](NC(=O)[C@H](CCCCN)NC(=O)[C@H](C)NC(=O)[C@H](CCCCN)NC(=O)[C@H](CO)NC(=O)[C@H](CCCCN)NC(=O)[C@H](CCCNC(=N)N)NC(=O)[C@H](Cc1ccccc1)NC(=O)[C@H](Cc1ccccc1)NC(=O)[C@H](C)NC(=O)CNC(=O)[C@H](CC(C)C)NC(=O)[C@@H](N)CC(C)C)C(=O)NCC(=O)N[C@@H](CCCCN)C(=O)N[C@@H](C)C(=O)N[C@@H](Cc1ccccc1)C(=O)N[C@@H](CCCCN)C(=O)N[C@@H](CCCNC(=N)N)C(=O)N[C@H](C(=O)N[C@H](C(=O)N[C@@H](CCC(N)=O)C(=O)N[C@@H](CCCNC(=N)N)C(=O)N[C@H](C(=O)N[C@@H](CCCCN)C(=O)N[C@@H](C)C(=O)N[C@@H](Cc1ccccc1)C(=O)N[C@@H](CC(C)C)C(=O)N[C@@H](CCCNC(=N)N)C(=O)O)[C@@H](C)CC)C(C)C)[C@@H](C)CC [LL-29V2] (H-LLGAFFRKSKAKIGKAFKRIVQRIKAFLR-OH) | 1/4 | 4/4 | 1/3 | 4/6 | 4/19 | 1/2 |  |  |  |  |  |  |  |  |  | 
